Assay results: US20170056504A1, “METHOD OF EXTENDING HALF-LIFE OF CRYSTALINE ANTIBODIES” (priority 2015, published 2017)

Columns and labels:
PCSK9 = PCSK9 (Mus musculus, UniProt Q80W65); assay: LDL level in blood serum of mice that received xPCSK9 mAb and/or lactulose; type: in vivo, C57BL6 mice; design: endogenous in cells; host or cells: C57BL6 mice, in vivo (circulating PCSK9 of the animal); conditions: oral lactulose alone without xPCSK9 mAb, Day 7
Protocol: At Day 0, anti-PCSK9-mAb was systemically administrated (30 mg/kg in PBS, i.v.) to the FcRn gene knockout mice or their wild type C57BL/6 mice (8 w old male). Lactulose (30%, water solution) was orally administered using a Popper's feeding needle once in a day throughout the experiment. In some experiment, groups of mice received antibiotics cocktail (Ampicillin, 2 mg/ml; Vancomycin, 1 mg/ml, Metronidazole 2 mg/ml and Neomycin, 2 mg/ml) ad libitum for 7 days. Blood was collected from mice at Day 1 and Day 7 (100 ul/mouse) by retro-orbital bleeding. The serum was separated from the collected blood and saved at −70 C until the measurement of anti-PCSK9-mAb as well as low-density lipoprotein (LDL) cholesterol in the sampled serum. […] The amount of LDL/VLDL in the serum was monitored using a HDL and LDL/VLDL Quantitation Kit (Sigma-Aldrich). The amount of anti-PCSK9-mAb in serum, liver, small and large intestines were measured using the ELISA as described above #1. […]
From Day-0 to Day 7, Lactulose (50% water solution, 0.2 ml/mouse) or control water (0.2 ml/mouse) was orally administered once/day. […] At Day 0, prior to any administrations, and Day 7, blood serum was collected and the concentration of LDL was monitored using LDL detection kit (Sigma).

[1] = Mouse model of high fat diet induced hyperlipidemia (another study); type: in vivo
[2] = tested on: Substance P and nerve growth factor (NGF); assay: Pregabalin-mediated suppression of pain associated factors with lactulose-generated hydrogen; type: in vivo; conditions: hydrogen generated by lactulose, mice
[3] = Lactulose with antibiotics cocktail: xPCSK9 mAb serum half-life and large intestine pH; type: in vivo, C57BL6 mice; conditions: with antibiotics cocktail in drinking water
Protocol: At Day 0, anti-PCSK9-mAb was systemically administrated (30 mg/kg in PBS, i.v.) to the FcRn gene knockout mice or their wild type C57BL/6 mice (8 w old male). Lactulose (30%, water solution) was orally administered using a Popper's feeding needle once in a day throughout the experiment. In some experiment, groups of mice received antibiotics cocktail (Ampicillin, 2 mg/ml; Vancomycin, 1 mg/ml, Metronidazole 2 mg/ml and Neomycin, 2 mg/ml) ad libitum for 7 days. Blood was collected from mice at Day 1 and Day 7 (100 ul/mouse) by retro-orbital bleeding. The serum was separated from the collected blood and saved at −70 C until the measurement of anti-PCSK9-mAb as well as low-density lipoprotein (LDL) cholesterol in the sampled serum. At Day 7, right after the collection of blood, mice were sacrificed, and liver, small intestine (distal portion, 2 cm above cecum) and large intestine (proximal colon, 1 cm below cecum) were collected. […] The amount of LDL/VLDL in the serum was monitored using a HDL and LDL/VLDL Quantitation Kit (Sigma-Aldrich). The amount of anti-PCSK9-mAb in serum, liver, small and large intestines were measured using the ELISA as described above #1. […] In FIG. 11B, content of large intestine sampled from sacrificed mice was suspended in water (0.1 g/1 ml) and the pH was monitored.

Chain of PCSK9 (Q80W65 156-694): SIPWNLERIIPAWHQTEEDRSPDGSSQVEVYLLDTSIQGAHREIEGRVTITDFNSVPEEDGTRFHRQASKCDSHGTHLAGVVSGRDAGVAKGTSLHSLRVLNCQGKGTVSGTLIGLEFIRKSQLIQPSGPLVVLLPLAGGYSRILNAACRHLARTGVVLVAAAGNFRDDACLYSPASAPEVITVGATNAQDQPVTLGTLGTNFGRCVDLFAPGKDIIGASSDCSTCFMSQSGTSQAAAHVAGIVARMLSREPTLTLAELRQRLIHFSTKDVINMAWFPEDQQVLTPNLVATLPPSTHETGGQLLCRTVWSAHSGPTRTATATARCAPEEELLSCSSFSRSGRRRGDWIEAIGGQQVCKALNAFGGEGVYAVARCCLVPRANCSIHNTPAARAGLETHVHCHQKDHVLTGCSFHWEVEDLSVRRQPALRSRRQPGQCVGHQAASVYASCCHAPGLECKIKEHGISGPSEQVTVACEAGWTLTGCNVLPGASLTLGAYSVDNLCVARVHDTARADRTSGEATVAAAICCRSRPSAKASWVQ

## OC[C@H]1O[C@@H](O[C@@H]2[C@@H](CO)OC(O)(CO)[C@H]2O)[C@H](O)[C@@H](O)[C@H]1O (mixture of isomers) [lactulose]
PCSK9
  LDL level in blood serum versus base line (Day 0): did not show any changes from the base line level
[1]
  oxidized LDL (oxLDL): can suppress
[2]
  effect on pregabalin-mediated suppression of Substance P and NGF: additive effect
[3]
  effect of lactulose on extending the serum half-life of xPCSK9 mAb: abolished
